Several values for one entry are separate records, joined by “and”; a condition that tells them apart may be missing. Equal values may be shown once. Marks after values point to notes of the source that are not given here. Each block holds one compound with its values, some of them ahead of it.
Tests used:
[1] = Heparin oral/intracolonic delivery, clotting time by activated partial thromboplastin time (APTT); format: in vivo, Sprague-Dawley rats; conditions: rats, baseline about 20 seconds
Description: Oral gavage (PO) and/or intracolonic (IC) dosing solutions containing a delivery agent compound and heparin sodium USP were prepared in 25% aqueous propylene glycol. […] This dry mixture was dissolved in 25% v/v aqueous propylene glycol, vortexed, and placed in a sonicator (about 37° C.). The pH was adjusted to about 7 (6.5 to 8.5) with aqueous NaOH (2N). The dosing solution was sonicated to produce a clear solution. The final volume was adjusted to about 3.0 ml.
(§1) The typical dosing and sampling protocols were as follows. […] The dosing solution was expressed slowly into the colon by pressing the syringe plunger.
Citrated blood samples were collected by cardiac puncture following the administration of ketamine (88 mg/kg), typically at 0.25, 0.5, 1.0 and 1.5 hours after dosing. Heparin absorption was verified by an increase in clotting time measured by the activated partial thromboplastin time (APTT) according to the method of Henry, J. B., Clinical Diagnosis and Management by Laboratory Methods, Philadelphia, Pa., W.B. Saunders (1979). Previous studies indicated baseline values of about 20 seconds.

[2] = Low molecular weight heparin (LMWH) oral/intracolonic delivery, plasma LMWH by anti-Factor Xa assay; format: in vivo, Sprague-Dawley rats; conditions: IC, rats; delivery agent compound 50 mg/kg, LMWH 750 IU/kg, 1 ml/kg
Description: Oral dosing (PO) and/or intracolonic (IC) compositions containing a delivery agent compound and low molecular weight heparin (LMWH) were prepared in 25% aqueous propylene glycol. […] Typically, the delivery agent compound and LMWH (Parnaparin, 91 IU/mg average molecular weight about 5,000, available from Opocrin, Modena, Italy) (typically 90-105 IU/mg, average molecular weight about 5,000) were mixed by vortex as dry powders. This dry mixture was dissolved in 25% v/v aqueous propylene glycol, vortexed, and placed in a sonicator (37° C.) to produce a clear solution. The pH was adjusted to about 7 (6.5-8.5) with 2N aqueous NaOH. The dosing solution was sonicated to produce a clear solution. The final volume was adjusted to 3.0 ml.
as §1
Citrated blood samples were collected by cardiac puncture following the administration of ketamine (88 mg/kg), typically at 0.5, 1.0, 2.0, 3.0 and 4.0 hours after dosing. LMWH absorption was verified by an increase in plasma LMWH measured by the anti-Factor Xa assay CHROMOSTRATE™ Heparin anti-Xa assay (available from Organon Teknika Corporation, Durham, N.C.). […] The peak of these mean plasma LMWH concentrations is reported below in Table 5.

[3] = Daptomycin oral delivery, plasma daptomycin by HPLC; format: in vivo, Sprague-Dawley rats; conditions: rats, delivery agent compound dose 200 mg/kg, daptomycin dose 50 mg/kg, volume dose 1 mL/kg
Description: Dosing solutions containing a delivery agent compound and daptomycin (Cubist Pharmaceuticals, Cambridge, Mass.) were prepared in 0.9% normal saline. […] This mixture was vortexed and placed in a sonicator (about 37° C.). The pH was adjusted to about 7.0-7.5 with aqueous HCl or NaOH. […] The mixture was vortexed to produce a uniform solution, also using sonication if necessary. The delivery agent compound solution was mixed with daptomycin from a stock solution (200 mg daptomycin/mL in 0.9% normal saline and the pH adjusted, if necessary, to between 6.0-7.0 with NaOH or HCl). The stock solution was stored frozen (−20° C.) wrapped in foil, then thawed and warmed gradually to about 25° C. before using. The delivery agent-daptomycin mixture was vortexed at low speed to produce a uniform solution. The pH was adjusted to about 7.0-7.5 with aqueous NaOH. The solution was then diluted with 0.9% normal saline to the desired volume (usually 2.0 ml) and concentration and stored wrapped in foil before use.
(§2) The typical dosing and sampling protocols were as follows.
Heparinized rat blood samples were collected via the ventral tail artery, typically at 0.25, 0.5, 0.75, 1.0, 2.0, and 4.0 hours after dosing, and stored on ice. Blood samples were then spun (centrifuged) at 11,500 rpm for 4 minutes at 4° C. to obtain the plasma (supernatant), which was stored at −70° C. The plasma daptomycin concentrations were measured by isocratic reversed phase HPLC, keeping samples at 4° C. during analysis. Blank plasma studies show baseline values of zero.
Daptomycin blood concentrations results from the individual animals in each dosage group were averaged for each time point.

[4] = Salmon calcitonin (sCT) oral delivery, serum sCT by EIA; conditions: rats, delivery agent compound dose 150 mg/kg, sCT dose 30 μg/kg
Description: Oral dosing (PO) compositions of a delivery agent compound and salmon calcitonin (sCT) in deionized water were prepared as described in Table 2 below. […] Either the sodium salt of the compound was used or the free acid was converted to the sodium salt by stirring the resultant solution and adding one equivalent of sodium hydroxide (1.0 N) and diluting with water. The solution was vortexed, then heated (about 37° C.) and sonicated. The pH was adjusted to about 7 (about 6.5 to 8.5) with NaOH or HCl. 90 μg sCT from a sCT stock solution (2 mg/ml made by adding 10001 pH 4 phosphate buffer to sCT and allowing it to go into solution by sitting for about 10-20 minutes and periodically gently inverting) was added to the solution.
The typical dosing and sampling protocols were as follows. Male Sprague-Dawley rats weighing between 200-250 g were fasted for 24 hours and administered ketamine (44 mg/kg) and chlorpromazine (1.5 mg/kg) 15 minutes prior to dosing and again as needed to maintain anesthesia. A dosing group of five animals was administered one of the dosing solutions. For oral dosing, an 11 cm Rusch 8 French catheter was adapted to a 1 ml syringe with a pipette tip. The syringe was filled with dosing solution by drawing the solution through the catheter, which was then wiped dry. The catheter was placed down the esophagus leaving 1 cm of tubing past the incisors. Solution was administered by pressing the syringe plunger.
Blood samples were collected serially from the tail artery, typically at time=0, 10, 20, 30, 60 and 90 minutes. […] Numbers were adjusted according to baseline values obtained at time=0. The results from the animals in each dosing group were averaged for each time point.

[5] = Interferon oral delivery, serum IFN by immunoassay; format: in vivo, Sprague-Dawley rats; conditions: rats, 1 ml/kg
Description: Dosing solutions of delivery agent compound and human interferon (IFN) were prepared in deionized water. […] This mixture was vortexed and placed in a sonicator (about 37° C.). The pH was adjusted to about 7.0 to 8.5 with aqueous NaOH. The mixture was vortexed to produce a uniform suspension or solution, also using sonication and heat if necessary.
as §2
Serum IFN concentrations were quantified using Cytoscreen Immunoassay Kit for human IFN-alpha (catalog # KHC4012 from Biosource International, Camarillo, Calif.). Previous studies indicated baseline values of about zero.

[6] = Cromolyn oral delivery, serum cromolyn by HPLC; format: in vivo, Sprague-Dawley rats; conditions: rats, delivery agent compound dose 200 mg/kg, cromolyn dose 25 mg/kg, in µg/mL (unit assumed)
Description: Dosing solutions containing a delivery agent compound (prepared as in Example 1) and cromolyn, disodium salt (cromolyn)(from Sigma Chemical Co., St. Louis, Mo.) were prepared in deionized water. […] This mixture was vortexed and placed in a sonicator (about 37° C.). The pH was adjusted to about 7-7.5 with aqueous NaOH. […] The mixture was vortexed to produce a uniform solution, also using sonication and heat if necessary. The delivery agent compound solution was mixed with cromolyn from a stock solution (175 mg cromolyn/ml in deionized water, pH adjusted, if necessary, with NaOH or HCl to about 7.0, stock solution stored frozen wrapped in foil, then thawed and heated to about 30° C. before using). The mixture was vortexed to produce a uniform solution, also using sonication and heat if necessary. The pH was adjusted to about 7-8 with aqueous NaOH. The solution was then diluted with water to the desired volume (usually 2.0 ml) and concentration and stored wrapped in foil before use.
as §2
Blood samples were collected via the tail artery, typically at 0.25, 0.5, 1.0 and 1.5 hours after dosing. Serum cromolyn concentrations were measured by HPLC. Samples were prepared as follows: 100 μl serum was combined with 100 μl 3N HCl and 300 μl ethyl acetate in an eppendorf tube. The tube was vortexed for 10 minutes and then centrifuged for 10 minutes at 10,000 rpm. 200 μl ethyl acetate layer was transferred to an eppendorf tube containing 67 μl 0.1 M phosphate buffer. The tube was vortexed for 10 minutes and then centrifuged for 10 minutes at 10,000 rpm. […] Previous studies indicated baseline values of about zero.

[7] = Recombinant human growth hormone (rhGH) oral delivery, serum rhGH by immunoassay; conditions: oral gavage, rats, delivery agent compound 200 mg/kg, rhGH 3 mg/kg
Description: Oral gavage (PO) dosing solutions of delivery agent compound and rhGH in phosphate buffer were prepared by mixing. A solution of the delivery agent compound was made either with the sodium salt of the delivery agent compound or by converting the free acid to its sodium salt.
The typical dosing and sampling protocols were as follows. Male Sprague-Dawley rats weighing 200-250 g were fasted for 24 hours and administered ketamine (44 mg/kg) and chlorpromazine (1.5 mg/kg) 15 minutes prior to dosing and again as needed to maintain anesthesia. A dosing group of five animals was administered one of the dosing solutions. An 11 cm Rusch 8 French catheter was adapted to a 1 ml syringe with a pipette tip. The syringe was filled with dosing solution by drawing the solution through the catheter, which was then wiped dry. The catheter was placed down the esophagus leaving 1 cm of tubing past the incisors. The dosing solution was administered by pressing the syringe plunger.
Blood samples were collected serially from the tail artery typically at time=15, 30, 45, 60 and 90 minutes. The five samples from each time period were pooled (except for those samples for which standard deviation (SD) and standard error (SE) are reported). Serum rHGH concentrations were quantified by an rHGH immunoassay test kit (Kit # K1F4015 from Genzyme Corporation Inc., Cambridge, Mass.).

[8] = Insulin oral delivery, serum human insulin by ELISA; conditions: rats, 1 ml/kg
Description: Oral dosing (PO) compositions of delivery agent compound and human zinc insulin (minimum 26 IU/mg available from Calbiochem—Novabiochem Corp, La Jolla, Calif.) were prepared in deionized water. […] The pH was adjusted to about 7 to 8.5 with NaOH or HCl. […] The final delivery agent compound dose, insulin dose and dose volume amounts are listed below in Table 8.
as §2
Serum insulin levels were determined with an Insulin ELISA Test Kit (Kit # DSL-10-1600 from Diagnostic Systems Laboratories, Inc., Webster, Tex.), modifying the standard protocol in order to optimize the sensitivity and linear range of the standard curve for the volumes and concentrations of the samples used in the present protocol. […] The five values for each time point were averaged and the results plotted as serum insulin concentration versus time.

[9] = Parathyroid hormone (PTH 1-34) oral/intracolonic delivery, serum PTH by radioimmunoassay; conditions: rats, oral (PO); delivery agent compound dose 100 mg/kg, PTH dose 200 μg/kg, volume dose 1 ml/kg
Description: Oral gavage (PO) and/or intracolonic (IC) dosing solutions of delivery agent compound and human parathyroid hormone residues 1-34 (PTH) in deionized water were prepared. A solution of the compound was made either with the sodium salt of the delivery agent compound or by converting the free acid to its sodium salt.
The typical dosing and sampling protocols were as follows. Male Sprague-Dawley rats weighing between 200-250 g were fasted for 24 hours and administered ketamine (44 mg/kg) and chlorpromazine (1.5 mg/kg) 15 minutes prior to dosing and again as needed to maintain anesthesia. A dosing group of five animals was administered one of the dosing solutions. For oral gavage (PO), an 11 cm Rusch 8 French catheter was adapted to a 1 ml syringe with a pipette tip. The syringe was filled with dosing solution by drawing the solution through the catheter, which was then wiped dry. The catheter was placed down the esophagus leaving 1 cm of tubing past the incisors. The dosing solution was administered by pressing the syringe plunger. For intracolonic (IC) dosing, a 7.5 cm Rusch catheter tube (French 8 or 6) was adapted to a syringe with an Eppendorf pipette tip. The syringe was filled with the dosing solution by drawing the solution through the catheter tube. The catheter tube was wiped dry. K-Y jelly was applied to the tip, avoiding contact with the eye of the tube, and the tube was inserted into the colon through the anus until the tube was no longer visible. The dosing solution was injected by pressing the syringe plunger, and the tube was removed.
Previous studies indicated baseline values of about zero. Results from the animals in each group were averaged for each time point.

[10] = Insulin pulmonary delivery, serum insulin by ELISA, ratio to insulin-alone control; format: in vivo, Sprague-Dawley rats; conditions: pulmonary, rats; volume 0.4 ml/kg, delivery agent compound 0.03 mg/kg, insulin 0.3 mg/kg (so in the source)
Description: Dosing compositions of delivery agent compound and human insulin in water were prepared. Typically, to 1.5 mg of delivery agent compound was added deionized water to bring the volume to 1.0 ml, and the solution was vortexed. […] The pH was adjusted to between about 7.0 to 8.5 with NaOH or HCl. […] The final delivery agent compound dose, insulin dose and volume dose amounts are listed below in Table 9.
The typical dosing and sampling protocols were as follows. […] A control group of five animals was dosed insulin alone. A tracheal instillator for rodents, equipped with light (available from Penn Century, Inc., Pittsburgh, Pa.) was filled with dosing solution and inserted down the throat until the needle went into the trachea (confirmed visually). The dosing solution was administered by pressing the plunger.
Blood samples from each animal were collected serially from the tail artery, typically at 5, 15, 30, 60 and 120 minutes after dosing. […] The ratio of the area under the curve (AUC) for the test group versus that of the control group is reported below. The ratio of the maximum serum insulin concentration (Cmax) for the test group versus that of the control group is also reported below.

[11] = IC (intracolonic), delivery agent compound 50 mg/kg, heparin 25 mg/kg, volume dose 1 ml
[12] = delivery agent compound 200 mg/kg, IFN 1 mg/kg

Mean Peak Serum [IFN] ± SD [5, 12]: 1 ± 2.1 ng/mL and 1.206 ng/mL | Mean Ratio of AUC for insulin + compound versus AUC for insulin alone [10]: 1.44 | Mean Peak Serum sCT (pg/ml ± SD) (SE) ([4]; dose volume 1 (ml)): 50 ± 71 pg/mL
Compound: O=C(O)CCCCCCCOc1cccc(O)c1 [Compound 43]
AUC (Total AUC(0→∞)) of daptomycin [3]: 4555* μg-min/mL and 2895* μg-min/mL and 2820* μg-min/mL

Mean Peak Serum [IFN] ± SD [5, 12]: 1.1 ± 0.85 ng/mL | Mean Ratio of AUC for insulin + compound versus AUC for insulin alone [10]: 0.63 | Mean Peak serum [cromolyn] ± SD (SE) ([6]; volume dose 1 ml/kg): 0.56 ± 0.39 | Mean Peak serum [cromolyn] ± SD (SE) ([6]; volume dose 2 ml/kg): 0.55 ± 0.12 | Mean Peak Serum sCT (pg/ml ± SD) (SE) ([4]; dose volume 1 (ml)): 62 ± 99 pg/mL | Mean Peak Serum [rhGH] ([7]; volume dose 2 ml): 9.9 ± 22.1 ng/mL
Compound: O=C(O)CCCCCCCOc1ccc(O)cc1 [Compound 47, (4-hydroxyphenyl)-8-oxyoctanoic acid]
Mean Peak APTT ± SD [1, 11]: 370.3 ± 97.8 s

Mean Peak Serum [INS] ± SD ([8]; delivery agent compound 200 mg/kg, insulin 3 mg/kg): 3322 ± 2721 μU/ml | Mean plasma Cmax [daptomycin] ± SD [3]: 8590 ± 4210 ng/mL
Compound: CC(=O)c1cc(O)ccc1OCCCCCCCC(=O)O [Compound 57, (4-hydroxy-2-acetylphenyl)-8-oxyoctanoic acid]

Mean Peak Serum [INS] ± SD ([8]; delivery agent compound 200 mg/kg, insulin 0.5 mg/kg): 58.99 ± 27.15 μU/ml | Mean Peak serum [cromolyn] ± SD (SE) ([6]; volume dose 1 ml/kg): 0.54 ± 0.39 and 0.57 ± 0.36 | Mean Peak serum [cromolyn] ± SD (SE) ([6]; volume dose 2 ml/kg): 0.39 ± 0.21
Compound: O=Cc1ccccc1OCCCCCCCC(=O)O [Compound 61]

More lines, now with the values behind:

Compound: O=C(O)c1ccc(COc2ccccc2O)cc1 [Compound 2]
Mean Peak APTT ± SD [1, 11]: 48.788 ± 32.79 s | Mean Peak Plasma LMWH Concentration ± SD [2]: 1.038 ± 0.338 IU/ml | Mean plasma Cmax [daptomycin] ± SD [3]: 5070 ± 610 ng/mL | Mean Peak Serum sCT (pg/ml ± SD) (SE) ([4]; dose volume 1 (ml), 150 mg/kg): 628 ± 221 pg/mL and 449 ± 550 pg/mL and 320 ± 348 pg/mL

Compound: O=C(O)CCCCCOc1ccccc1O [Compound 5]
Mean Peak APTT ± SD ([1]; PO (oral gavage), delivery agent compound 300 mg/kg, heparin 100 mg/kg, volume dose 3 ml): 135.7 ± 17.3 s | Mean Peak Serum [IFN] ± SD ([5]; delivery agent compound 50 mg/kg, IFN 0.5 mg/kg): 1.54 ± 0.26 ng/mL and 2.1 ± 0.95 ng/mL | Mean Peak serum [cromolyn] ± SD (SE) ([6]; volume dose 1 ml/kg): 0.63 ± 0.47 | Mean plasma Cmax [daptomycin] ± SD [3]: 7082 ± 3860 ng/mL | Mean Peak Serum sCT (pg/ml ± SD) (SE) ([4]; dose volume 1 (ml)): 349 ± 348 pg/mL

Compound: CC(=O)c1ccccc1OCCCCCC(=O)O [Compound 11]
Mean Peak APTT ± SD [1, 11]: 39.53 ± 8.25 s | Mean Peak Plasma LMWH Concentration ± SD [2]: 0.91 ± 0.414 IU/ml | Mean plasma Cmax [daptomycin] ± SD [3]: 13270 ± 13430 ng/mL | Mean Peak Serum sCT (pg/ml ± SD) (SE) ([4]; dose volume 1 (ml)): 526 ± 415 pg/mL | Mean Peak Serum [rhGH] ([7]; volume dose 1 ml): 35.4 ng/mL

Compound: O=C(O)CCCOc1ccccc1 [Compound 14]
Mean plasma Cmax [daptomycin] ± SD [3]: 14200 ± 24840 ng/mL | Mean Peak Serum [rhGH] ([7]; volume dose 1 ml): 19.8 ng/mL

Compound: O=C(O)CCCCCOc1ccccc1 [Compound 15]
Mean Peak Serum [IFN] ± SD [5, 12]: 6.0324 ± 2.8 ng/mL | Mean Peak Serum [INS] ± SD ([8]; delivery agent compound 100 mg/kg, insulin 3 mg/kg): 1332.2 ± 1906.4 μU/ml | Mean Peak serum [cromolyn] ± SD (SE) ([6]; volume dose 1 ml/kg): 0.38 ± 0.15 | Mean plasma Cmax [daptomycin] ± SD [3]: 9500 ± 5490 ng/mL | Mean Peak Serum sCT (pg/ml ± SD) (SE) ([4]; dose volume 2 (ml)): 116 ± 88 pg/mL

Compound: CC(C)NC(=O)c1ccccc1OCCCCCCCC(=O)O [Compound 34]
Mean Peak Serum sCT (pg/ml ± SD) (SE) ([4]; dose volume 1 (ml), 150 mg/kg): 103 ± 72 pg/mL and 137 ± 178 pg/mL | Mean Peak Serum [PTH] (pg/mL) ± SD [9]: 538 ± 328 pg/mL

Source: US8410309B2, “Phenoxy carboxylic acid compounds and compositions for delivering active agents” (Emisphere Technologies, Inc., priority 1999, dated 2013)
